According to patent US20040077754A1, “Dental materials based on acrylic-ester phosphonic acids” (priority 2002, published 2004):

Conditions: 20% solution in D2O/EtOH-d6 (1:1), stabilized with 200 ppm 2,6-di-tbutyl-4-methylphenol, stored at 37° C., standing time 2 months
Procedure: In connection with the present invention, compounds which are stable in water or in mixtures of water and water-miscible solvents in a concentration of approx. 20 wt.-% and a pH value of approx. 2.0 at 37° C. for at least 6 weeks, i.e. hydrolyze to less than 1%, are described as hydrolysis-stable.
A 20% solution of MAPA, stabilized with 200 ppm 2,6-di-tbutyl-4-methylphenol, was prepared in D2O/EtOH-d6 (1:1), stored at 37° C. and ^1H-NMR-spectroscopically examined. After a standing time of 2 months, no changes in the ^1H-NMR-spectrum were able to be detected.

## C=C(COCCP(=O)(O)O)C(=O)Oc1c(C)cc(C)cc1C [MAPA]
  Hydrolysis stability: changes in the 1H-NMR spectrum: no changes
